Experimental data: the supplement of paper PMC10307832

How the values were obtained:
Assay in all cases: relative viability (nuclei count vs DMSO), 5 days (fraction); higher = more cells survive
Avagacestat + Bortezomib = compound: NC(=O)[C@@H](CCC(F)(F)F)N(Cc1ccc(-c2ncon2)cc1F)S(=O)(=O)c1ccc(Cl)cc1 [Avagacestat] + CC(C)C[C@H](NC(=O)[C@H](Cc1ccccc1)NC(=O)c1cnccn1)B(O)O [Bortezomib] (partner 0.002 µM)
Summary of the method: (§1)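 Cells from lung cancer lines were seeded into 1536-well plates and, one day later, dosed by pin tool. Treatments were either a single drug or a fixed dose of an anchor drug with five library-drug doses (not always all listed) in √10 steps. After 5 days, nuclei were stained in a one-step fixation (final 0.05% Triton X-100, 1% formaldehyde, 1 ug/ml Hoechst) and counted on 4× images, and relative viability is the treated-to-vehicle nuclei ratio, as the median of duplicate plates.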

Avagacestat + Decitabine = compound: NC(=O)[C@@H](CCC(F)(F)F)N(Cc1ccc(-c2ncon2)cc1F)S(=O)(=O)c1ccc(Cl)cc1 [Avagacestat] + Nc1ncn([C@H]2C[C@H](O)[C@@H](CO)O2)c(=O)n1 [Decitabine] (partner 2 µM)
Summary of the method: as §1

Avagacestat + AZD7762 = compound: NC(=O)[C@@H](CCC(F)(F)F)N(Cc1ccc(-c2ncon2)cc1F)S(=O)(=O)c1ccc(Cl)cc1 [Avagacestat] + NC(=O)Nc1cc(-c2cccc(F)c2)sc1C(=O)N[C@H]1CCCNC1 [AZD7762] (partner 0.2 µM)
Summary of the method: as §1

Avagacestat + Lapatinib = compound: NC(=O)[C@@H](CCC(F)(F)F)N(Cc1ccc(-c2ncon2)cc1F)S(=O)(=O)c1ccc(Cl)cc1 [Avagacestat] + CS(=O)(=O)CCNCc1ccc(-c2ccc3ncnc(Nc4ccc(OCc5cccc(F)c5)c(Cl)c4)c3c2)o1 [Lapatinib] (partner 2 µM)
Summary of the method: as §1

Cell Line | relative viability (Avagacestat + Bortezomib; first compound 0.08 µM) | relative viability (Avagacestat + Bortezomib; first compound 0.253 µM) | relative viability (Avagacestat + Bortezomib; first compound 0.8 µM) | relative viability (Avagacestat + Bortezomib; first compound 2.53 µM) | relative viability (Avagacestat + Bortezomib; first compound 8 µM) | relative viability (Avagacestat + Decitabine; first compound 0.08 µM) | relative viability (Avagacestat + Decitabine; first compound 0.253 µM) | relative viability (Avagacestat + Decitabine; first compound 0.8 µM) | relative viability (Avagacestat + Decitabine; first compound 2.53 µM) | relative viability (Avagacestat + Decitabine; first compound 8 µM) | relative viability (Avagacestat + AZD7762; first compound 0.08 µM) | relative viability (Avagacestat + AZD7762; first compound 0.253 µM) | relative viability (Avagacestat + AZD7762; first compound 0.8 µM) | relative viability (Avagacestat + AZD7762; first compound 2.53 µM) | relative viability (Avagacestat + AZD7762; first compound 8 µM) | relative viability (Avagacestat + Lapatinib; first compound 0.08 µM) | relative viability (Avagacestat + Lapatinib; first compound 0.253 µM) | relative viability (Avagacestat + Lapatinib; first compound 0.8 µM) | relative viability (Avagacestat + Lapatinib; first compound 2.53 µM) | relative viability (Avagacestat + Lapatinib; first compound 8 µM)
201T | 1.1 | 1.08 | 1.2 | 1.11 | 1.09 | 0.861 | 0.885 | 0.888 | 0.801 | 0.767 | 0.65 | 0.712 | 0.607 | 0.56 | 0.587 | 1.04 | 1.06 | 1.12 | 0.995 | 1.01
A-427 | 0.957 | 1.08 | 1.07 | 1.07 | 1.08 | 0.549 | 0.583 | 0.565 | 0.619 | 0.601 | 0.752 | 0.753 | 0.703 | 0.619 | 0.68 | 1.03 | 1.28 | 1.12 | 1.07 | 1.06
ABC-1 | 0.325 | 0.294 | 0.362 | 0.273 | 0.271 | 1.12 | 1.26 | 1.07 | 1.17 | 1.24 | 0.864 | 1.02 | 0.895 | 0.94 | 0.664 | 1.23 | 1.32 | 1.14 | 0.497 | 1.15
BEN | 0.936 | 0.789 | 0.954 | 0.533 | 0.775 | 0.734 | 0.712 | 0.824 | 0.732 | 0.685 | 0.706 | 0.676 | 0.744 | 0.79 | 0.644 | 0.886 | 0.768 | 0.685 | 0.592 | 0.585
CAL-12T | 1.13 | 0.982 | 1.42 | 1.09 | 1.14 | – | – | – | – | – | 0.703 | 0.703 | 0.782 | 0.61 | 0.569 | 0.836 | 0.859 | 0.833 | 0.747 | 0.699
ChaGo-K-1 | 1.02 | 0.914 | 1.14 | 1.32 | 1.06 | 0.558 | 0.526 | 0.492 | 0.516 | 0.49 | 0.896 | 0.855 | 0.818 | 0.794 | 0.733 | – | – | – | – | –
EKVX | 1.18 | 1.44 | 1.23 | 0.885 | 0.9 | 0.391 | 0.299 | 0.378 | 0.354 | 0.36 | 0.699 | 0.779 | 0.818 | 0.633 | 0.624 | 0.227 | 0.208 | 0.226 | 0.186 | 0.184
EMC-BAC-2 | 1.22 | 1.17 | 1.23 | 1.08 | 1.11 | 1.1 | 1.06 | 1.09 | 1.07 | 1.07 | 1.23 | 1.33 | 1.28 | 0.976 | 1.21 | 0.978 | 0.956 | 1.02 | 0.954 | 0.841
EPLC-272H | 1.02 | 1.02 | 1.05 | 1.21 | 0.922 | 0.421 | 0.435 | 0.4 | 0.322 | 0.352 | 0.268 | 0.233 | 0.244 | 0.169 | 0.156 | 1.1 | 0.963 | 0.883 | 1.15 | 0.997
H3255 | 1.02 | 0.966 | 1.08 | 0.817 | 0.788 | 0.619 | 0.731 | 0.678 | 0.591 | 0.542 | 1.02 | 0.988 | 1.22 | 0.928 | 0.775 | 0.262 | 0.259 | 0.3 | 0.244 | 0.276
HARA | 1.71 | 1.09 | 1.17 | 1.16 | 1.07 | 0.4 | 0.377 | 0.621 | 0.435 | 0.448 | 0.303 | 0.276 | 0.332 | 0.24 | 0.184 | 0.628 | 0.692 | 0.526 | 0.624 | 0.63
HCC-15 | 1.22 | 1.21 | 1.24 | 0.973 | 0.921 | 0.791 | 0.745 | 0.705 | 0.575 | 0.523 | 1.21 | 1.22 | 1.3 | 1.16 | 1.38 | 0.95 | 1.04 | 1.12 | 0.879 | 0.778
HCC-44 | 1.06 | 1.09 | 0.934 | 0.965 | 0.829 | 0.991 | 0.944 | 0.985 | 0.968 | 0.986 | 0.923 | 1.04 | 1.03 | 1.01 | 1.18 | 1.23 | 0.893 | 1.17 | 1.03 | 0.98
HCC-78 | 0.508 | 0.51 | 0.514 | 0.313 | 0.366 | 0.675 | 0.726 | 0.75 | 0.683 | 0.669 | 0.61 | 0.615 | 0.665 | 0.461 | 0.529 | 0.556 | 0.696 | 1.48 | 0.7 | 0.579
HCC-366 | – | 1.98 | 1.29 | 1.22 | 0.887 | 0.463 | 0.344 | 0.36 | 0.306 | 0.271 | 0.268 | 0.272 | 0.328 | 0.235 | 0.176 | 1.6 | 1.26 | 1.23 | 1.05 | 1.21
HCC-827 | 1.09 | 1.13 | 1.13 | 1.05 | 1.12 | 0.328 | 0.313 | 0.327 | 0.329 | 0.296 | 0.193 | 0.188 | 0.216 | 0.161 | 0.188 | 0.197 | 0.178 | 0.177 | 0.169 | 0.191
